# Data: ChEMBL document CHEMBL4371049, “Semi-synthesis and anti-tumor activity of novel 25-OCH3-PPD derivatives incorporating aromatic moiety” (Bioorg Med Chem Lett, 2019)
# What was measured:
# Type in all cases: functional, cell-based
# MCF7 = test: Antiproliferative activity against human MCF7 cells after 48 hrs by MTT assay; conditions: MCF7, 48 h
# PC-3 = test: Antiproliferative activity against human PC3 cells after 48 hrs by MTT assay; conditions: PC-3, 48 h
# BGC-823 = test: Antiproliferative activity against human BGC823 cells after 48 hrs by MTT assay; conditions: BGC-823, 48 h
# HepG2 = test: Antiproliferative activity against human HepG2 cells after 48 hrs by MTT assay; conditions: HepG2, 48 h
# DU-145 = test: Antiproliferative activity against human DU145 cells after 48 hrs by MTT assay; conditions: DU-145, 48 h
SMILES,IC50 (MCF7) [µM],IC50 (PC-3) [µM],IC50 (BGC-823) [µM],IC50 (HepG2) [µM],IC50 (DU-145) [µM]
COC(C)(C)CCC[C@@](C)(O)[C@H]1CC[C@]2(C)[C@@H]1[C@H](O)C[C@@H]1[C@@]3(C)CC[C@H](OC(=O)c4ccc(F)cc4)C(C)(C)[C@@H]3CC[C@]12C,9.4,15,12.7,8.5,13.8
COC(C)(C)CCC[C@@](C)(O)[C@H]1CC[C@]2(C)[C@@H]1[C@H](OC(=O)c1ccc([N+](=O)[O-])cc1)C[C@@H]1[C@@]3(C)CC[C@H](OC(=O)c4ccc([N+](=O)[O-])cc4)C(C)(C)[C@@H]3CC[C@]12C,> 50,> 50,> 50,> 50,> 50
COC(C)(C)CCC[C@@](C)(O)[C@H]1CC[C@]2(C)[C@@H]1[C@H](O)C[C@@H]1[C@@]3(C)CC[C@H](OC(=O)c4ccc(Cl)cc4)C(C)(C)[C@@H]3CC[C@]12C,19,28.3,26.4,25.7,20.5
COC(C)(C)CCC[C@@](C)(O)[C@H]1CC[C@]2(C)[C@@H]1[C@H](OC(=O)c1ccc(Br)cc1)C[C@@H]1[C@@]3(C)CC[C@H](OC(=O)c4ccc(Br)cc4)C(C)(C)[C@@H]3CC[C@]12C,> 50,> 50,> 50,> 50,> 50
COC(C)(C)CCC[C@@](C)(O)[C@H]1CC[C@]2(C)[C@@H]1[C@H](O)C[C@@H]1[C@@]3(C)CC[C@H](OC(=O)c4cc(I)ccc4Cl)C(C)(C)[C@@H]3CC[C@]12C,29.4,> 50,> 50,28.8,30.7
COC(C)(C)CCC[C@@](C)(O)[C@H]1CC[C@]2(C)[C@@H]1[C@H](OC(=O)c1ccc([N+](=O)[O-])cc1)C[C@@H]1[C@@]3(C)CC[C@H](O)C(C)(C)[C@@H]3CC[C@]12C,> 50,> 50,> 50,> 50,> 50
COC(C)(C)CCC[C@@](C)(O)[C@H]1CC[C@]2(C)[C@@H]1[C@H](OC(=O)c1cc(F)ccc1Br)C[C@@H]1[C@@]3(C)CC[C@H](OC(=O)c4cc(F)ccc4Br)C(C)(C)[C@@H]3CC[C@]12C,> 50,> 50,> 50,> 50,> 50
COC(C)(C)CCC[C@@](C)(O)[C@H]1CC[C@]2(C)[C@@H]1[C@H](OC(=O)c1ccccc1)C[C@@H]1[C@@]3(C)CC[C@H](OC(=O)c4ccccc4)C(C)(C)[C@@H]3CC[C@]12C,> 50,> 50,> 50,> 50,> 50
COC(C)(C)CCC[C@@](C)(O)[C@H]1CC[C@]2(C)[C@@H]1[C@H](O)C[C@@H]1[C@@]3(C)CC[C@H](OC(=O)c4ccccc4Cl)C(C)(C)[C@@H]3CC[C@]12C,15.6,22,28.1,19.2,18.5

# Next, values leading:
IC50 (MCF7) [µM],IC50 (PC-3) [µM],IC50 (BGC-823) [µM],IC50 (HepG2) [µM],IC50 (DU-145) [µM],SMILES
> 50,> 50,> 50,> 50,> 50,COC(C)(C)CCC[C@@](C)(O)[C@H]1CC[C@]2(C)[C@@H]1[C@H](OC(=O)c1ccc(Br)cc1)C[C@@H]1[C@@]3(C)CC[C@H](O)C(C)(C)[C@@H]3CC[C@]12C
17.6,35.7,26.2,25.7,23.1,COC(C)(C)CCC[C@@](C)(O)[C@H]1CC[C@]2(C)[C@@H]1[C@H](O)C[C@@H]1[C@@]3(C)CC[C@H](OC(=O)c4ccc(Br)cc4)C(C)(C)[C@@H]3CC[C@]12C
35,37.2,28.7,26.4,40.1,COC(C)(C)CCC[C@@](C)(O)[C@H]1CC[C@]2(C)[C@@H]1[C@H](O)C[C@@H]1[C@@]3(C)CC[C@H](OC(=O)/C=C/c4ccccc4)C(C)(C)[C@@H]3CC[C@]12C
33.4,46.5,28.7,39.2,28.1,COC(C)(C)CCC[C@@](C)(O)[C@H]1CC[C@]2(C)[C@@H]1[C@H](O)C[C@@H]1[C@@]3(C)CC[C@H](OC(=O)c4ccccc4I)C(C)(C)[C@@H]3CC[C@]12C
25.3,16.7,17.4,20.6,19.2,COC(C)(C)CCC[C@@](C)(O)[C@H]1CC[C@]2(C)[C@@H]1[C@H](O)C[C@@H]1[C@@]3(C)CC[C@H](OC(=O)c4ccc([N+](=O)[O-])cc4)C(C)(C)[C@@H]3CC[C@]12C
> 50,43.2,37.7,> 50,> 50,COC(C)(C)CCC[C@@](C)(O)[C@H]1CC[C@]2(C)[C@@H]1[C@H](OC(=O)c1ccc(F)cc1F)C[C@@H]1[C@@]3(C)CC[C@H](OC(=O)c4ccc(F)cc4F)C(C)(C)[C@@H]3CC[C@]12C
37.2,> 50,48.6,> 50,29.7,COC(C)(C)CCC[C@@](C)(O)[C@H]1CC[C@]2(C)[C@@H]1[C@H](OC(=O)c1ccccc1[N+](=O)[O-])C[C@@H]1[C@@]3(C)CC[C@H](OC(=O)c4ccccc4[N+](=O)[O-])C(C)(C)[C@@H]3CC[C@]12C
> 50,> 50,> 50,> 50,> 50,COC(C)(C)CCC[C@@](C)(O)[C@H]1CC[C@]2(C)[C@@H]1[C@H](OC(=O)/C=C/c1ccc(Cl)cc1)C[C@@H]1[C@@]3(C)CC[C@H](OC(=O)/C=C/c4ccc(Cl)cc4)C(C)(C)[C@@H]3CC[C@]12C
